Assay results from US20250312291A1, “DIARYLHEPTANOID BASED MEDICINAL PREPARATION AND METHOD OF PREPARATION OF THE SAME” (ARJUNA NATURAL PRIVATE LIMITED, priority 2022, published 2025).

System: Amphistome ova
Test: Deworming in cows positive for Amphistome ova (ova checked from dung matter)
Type: in vivo
Conditions: before treatment (baseline)
From the text: In one embodiment efficacy of diarylheptanoid metal complex on deworming in cows was studied. Cows positive for Amphistome ova were selected and treated with diarylheptanoid metal complex. Deworming in cows is important for several reasons. First, internal parasites or worms can cause significant harm to cow health and productivity. These parasites can cause damage to the cow's gastrointestinal tract, leading to reduced feed intake, weight loss, and poor growth rates. In severe cases, internal parasites can even lead to death. Second, internal parasites can also have economic impacts on the farm. Infected cows may have reduced milk production and lower-quality meat, which can lead to financial losses for the farmer. Third, internal parasites can also be a source of infection for other animals on the farm. Some parasites can be passed from cow to cow or from cow to other species such as sheep or goats. After 30 days of treatment with diarylheptanoid calcium complex, the number of Ova in the dung matter is nil compared to untreated control.
Twenty cows that were positive for Amphistome ova were selected for this study. Cows were grouped into four groups with 5 cows in each group. Cows were segregated as follows.
Before and after 30 days of treatment ova was checked from the dung matter.

CCCSc1ccc2nc(NC(=O)OC)[nH]c2c1 [Albendazole]
Ova Before: + + + + +
